Values quoted from earlier work, collected in patent US11576926B2, “Composition for use in the prevention and/or treatment of epistaxis” (priority 2018, dated 2023).

Columns and labels:
[1] = test system: seasonal allergic rhinitis; details: 800 mg/day in addition to the classic anti-allergy treatment; 112 patients
[2] = test system: TPA (12-O-tetradecanoylphorbol-13-acetate) induced inflammatory response; details: topical, 30 minutes before TPA
[3] = test system: corneal wounds in rat models with type 1 diabetes; details: solution containing 0.3% HA
[4] = test system: nasal mucosa after surgery in the nasal cavity
dry rhinitis = details: 20 ml spray with 5% dexpanthenol; vs placebo
fibroblast = details: both in vitro and in vivo
[5] = test system: epithelial tissue in mouse models; details: dexpanthenol cream; after 20 days; vs control group
[6] = test system: ultraviolet-induced erythema; details: in vivo
Staphylococcus aureus = details: silver ions
[7] = test system: non-allergic and idiopathic rhinitis
Escherichia coli = details: silver ions
rhinitis sicca syndrome = details: nasal spray; 0.5% ectoin, or 0.5% ectoin and 1.0% dexpanthenol
[8] = patients who received the therapy, 90 patients

Vitamin E
nasal symptoms associated with allergic rhinitis [1]: reduction of the nasal symptoms | activity of myeloperoxidase (MPO) [2]: inhibits | activity of xanthine oxidase (XO) [2]: inhibits | lipid peroxidation (LPO) [2]: inhibits | release of hydrogen peroxide [2]: inhibits

Hyaluronic acid
re-epithelialization of corneal wounds [3]: statistically significant in enhancing re-epithelialization | formation of bloody scabs ([4]; after the first week of treatment): prevented excessive formation of bloody scabs | tolerability ([4]; all trial participants): well tolerated | recovery (healing of the nasal mucosa) ([4]; cream with 2 mg HA per g, 6-week treatment, vs ointments based on plant extracts, 56 patients): recover faster and more effectively than the ointment group | adverse effects ([4]; during the trial): No adverse effects were reported

CC(C)(CO)[C@@H](O)C(=O)NCCCO [dexpanthenol, Dexpanthenol]
symptoms of rhinitis (scabs, nasal respiratory capacity) (dry rhinitis): improving the symptoms of rhinitis | fibroblast proliferation (fibroblast): activate fibroblast proliferation | regeneration rate of epithelial tissue [5]: statistically higher than the control group | effect on experimental ultraviolet-induced erythema [6]: anti-inflammatory effect | epidermal regeneration (transepidermal water loss monitoring) (epidermal wounds; compared to placebo): significant acceleration of epidermal regeneration | erythema of epidermal wounds (epidermal wounds; dexpanthenol emulsion): reduction in erythema | re-epithelialization in wound healing (epidermal wounds; monitored by transepidermal water loss): Accelerated re-epithelialization

[Ag] [silver, Silver]
antibacterial effect (structural changes, permeability, ion transport) (Staphylococcus aureus): eventually leading to death | improvement in the condition of the nasal epithelium, share of patients ([7]; human, in vivo): over 70% | treatment effect compared to placebo ([7]; human, in vivo): statistically significant compared to placebo | improvement in the nasal decongestion, share of cases [7, 8]: 80% | improvement in the rhinorrhea, share of cases [7, 8]: 93% | antibacterial effect (structural changes, permeability, ion transport) (Escherichia coli): eventually leading to death

CC1=NCC[C@@H](C(=O)O)N1 [ectoin]
nasal obstruction, rhinorrhea and crusting (rhinitis sicca syndrome): decreased significantly | recurrent nose bleeding, pharyngitis, exudate viscosity during inflammatory phenomena and cacosmia (rhinitis sicca syndrome): this did not occur
